Experimental data from patent US11850334B2, “Immobilised biological entities” (CARMEDA AB, priority 2018, dated 2023).

System: FXa
Assay: Anti-FXa activity of heparin fragments in solution, compared with International Standard (Evaluation Method C)
Type: biochemical
Conditions: not immobilized, calculated towards Low Molecular Heparin 2nd International Standard
Protocol: Evaluation Method C: Anti-FXa Activity Determination of Heparin Fragments in Solution, Compared with International Standard
The anticoagulant activity of the heparin fragments are determined in an anti-FXa assay. This method measures anti-FXa activity of heparin essentially according to USP<208> Anti-FXa and Anti-FIIa assays for unfractionated and low molecular weight heparins. The method is based on heparin's ability to accelerate antithrombin inhibition of FXa in vitro, where the residual FXa activity is detected using a chromogenic FXa substrate (CS 11(65)). The results expressed as IU/mg (international unit/mg) are calculated using the parallel-line model, towards the Low Molecular Heparin 2nd International Standard.
Anti-FXa activity was determined by Evaluation Method Con example 1.2 (alpha), 1.1 (beta), 2.1, 2.2 and 2.3 (see Table 3). All heparin fragments tested were in solution and not immobilized to a surface.

| Molecule | anti-FXa activity |
| --- | --- |
| 5-Aminopentyl 2-deoxy-2-sulfamido-6-O-sulfo-α-D-glucopyranosyl-(1→4)-β-D-glucopyranosyluronic acid-(1→4)-2-deoxy-2-sulfamido-3,6-di-O-sulfo-α-D-glucopyranosyl-(1→4)-2-O-sulfo-α-L-idopyranosyluronic acid-(1→4)-2-deoxy-2-sulfamido-6-O-sulfo-β-D-glucopyranoside [Example 1.1] | 385 IU/mg |
| NCCCCCO[C@H]1O[C@H](COS(=O)(=O)O)[C@@H](O[C@@H]2O[C@@H](C(=O)O)[C@@H](O[C@H]3O[C@H](COS(=O)(=O)O)[C@@H](O[C@@H]4O[C@H](C(=O)O)[C@@H](O[C@H]5O[C@H](COS(=O)(=O)O)[C@@H](O)[C@H](O)[C@H]5NS(=O)(=O)O)[C@H](O)[C@H]4O)[C@H](OS(=O)(=O)O)[C@H]3NS(=O)(=O)O)[C@H](O)[C@H]2OS(=O)(=O)O)[C@H](O)[C@H]1NS(=O)(=O)O [Example 1.2, 5-Aminopentyl 2-deoxy-2-sulfamido-6-O-sulfo-α-D-glucopyranosyl-(1→4)-β-D-glucopyranosyluronic acid-(1→4)-2-deoxy-2-sulfamido-3,6-di-O-sulfo-α-D-glucopyranosyl-(1→4)-2-O-sulfo-α-L-idopyranosyluronic acid-(1→4)-2-deoxy-2-sulfamido-6-O-sulfo-α-D-glucopyranoside] | 330 IU/mg |
